As usually defined, the half-life is how long it takes for the measured level to halve. As usually defined, the CL/F is the apparent clearance, not corrected for the fraction that reaches the circulation.

Data set [1] has as its system CYP3A. In words: Clinical DDI study: pharmacokinetics of midazolam (CYP3A probe substrate) and 1′-hydroxymidazolam with and without ceritinib. The format is in vivo, human. Particulars: for Metabolite-to-parent ratio: AUC0–144 h based, molecular weight corrected; for AUC(0-inf): read-out: AUC0-inf, adjusted geometric mean. From the text: This was a multicenter, open-label, single sequence, crossover phase I study (ClinicalTrials.gov identifier: NCT02422589) and was divided into two phases, DDI phase and post-DDI treatment phase (Fig. 1). Patients were recruited from 10 clinical centers located across 4 countries, namely Spain (n = 3), United States (n = 3), Italy (n = 3), and Denmark (n = 1).
To assess the pharmacokinetics of probe substrates, blood samples were obtained on Days 1 and 28 at pre-dose and at 0.25, 0.5, 1, 2, 3, 4, 6, 8, 10, 24, 48, 72, 96, 120, and 144 h post-dose. […] A blood sample for CYP2C9 genotyping was collected on Day 1 of the DDI phase from all participating patients. Patients were categorized as CYP2C9 poor, intermediate, or extensive metabolizers based on the genotype testing results. This assessment was of exploratory nature and was not used as inclusion/exclusion criteria in the study.
A linear mixed-effects model was fitted to the log-transformed primary PK parameters (Cmax, AUC0-144 h, and AUC0-inf) and included a fixed effect for treatment and a random effect for subject.

In data set [2] the test system is CYP2C9. Particulars: for AUC0-inf, adjusted geometric mean / Cmax, adjusted geometric mean: linear mixed effects model; for AUC0–144 h / Cmax: patient plasma; for AUC0–144 h / Cmax / Metabolite-to-parent ratio: geometric mean (CV%); for Tmax: median [min, max]; for Metabolite-to-parent ratio: AUC0–144 h based, molecular weight corrected.
In data set [3] the test system is CYP3A. Particulars: PBPK, cited from earlier work.
Where [4] appears, read: midazolam 2.5 mg single oral dose + ceritinib 750 mg QD at steady state (Day 28), patient plasma, geometric mean (CV%).
The mark [5] stands for this setting: midazolam 2.5 mg single oral dose alone (Day 1), patient plasma, geometric mean (CV%).
Where [6] appears, read: midazolam + ceritinib vs midazolam alone.
Where [7] appears, read: treatment warfarin + ceritinib 750 mg QD for 3 weeks.
The mark [8] stands for this setting: warfarin 10 mg single oral dose + ceritinib 750 mg QD at steady state (Day 28).
The mark [9] stands for this setting: warfarin 10 mg single oral dose alone (Day 1).
The mark [10] stands for this setting: warfarin + ceritinib vs warfarin alone.
Where [11] appears, read: warfarin + ceritinib / warfarin alone.
[12] abbreviates: midazolam 2.5 mg single oral dose + ceritinib 750 mg QD (Day 28), geometric mean (CV%).
Where [13] appears, read: midazolam 2.5 mg single oral dose alone (Day 1), geometric mean (CV%).

The structures appear in SMILES notation. Values joined by “and” are separate entries in the source; they are usually repeats but may differ in a detail not shown here. Identical values can stand only once. “Also recorded” adds a separate entry of the source. Like-named read-outs stand apart in the source and are kept apart here.

For the molecule `OCc1ncc2n1-c1ccc(Cl)cc1C(c1ccccc1F)=NC2` [1′-hydroxymidazolam], the Tmax was 0.583 [0.250; 2.53] h in data set [1] (midazolam 2.5 mg single oral dose + ceritinib 750 mg QD (Day 28), median [min, max]) and 0.500 [0.217; 2.00] h in data set [1] (midazolam 2.5 mg single oral dose alone (Day 1), median [min, max]). Besides, the “AUC0–144 h” value in data set [1] (setting [4]) is recorded as 12.1 (87.0) h*ng/mL; in data set [1] (setting [5]) it was 14.7 (74.4) h*ng/mL. Further, the Cmax in data set [1] (setting [4]) is 1.90 (73.8) ng/mL; in data set [1] (setting [5]), 5.41 (74.1) ng/mL. Besides, the Metabolite-to-parent ratio in data set [1] (midazolam + ceritinib 750 mg QD (Day 28), geometric mean (CV%)) was 2.9% and 2.89 (66.7) %; in data set [1] (midazolam alone (Day 1), geometric mean (CV%)), 19.3% and 19.3 (66.3) %. Also, in data set [1] (setting [6]), the “decrease in the metabolite-to-parent AUC ratio” value worked out at 85%.

With `CC(=O)C[C@@H](c1ccccc1)c1c(O)c2ccccc2oc1=O` [S-warfarin], the “reduction of S-warfarin CL/F” value in data set [2] (co-administered with ceritinib vs warfarin alone) is “approximately 30%”. Besides, the figures for the “AUC0-inf, adjusted geometric mean” value in data set [2] (setting [7]) and in data set [2] (treatment warfarin alone) were 32800 ng·h/mL and 21200 ng·h/mL, respectively. In addition, the “Cmax, adjusted geometric mean” value in data set [2] (setting [7]) turned out to be 598 ng/mL; in data set [2] (treatment warfarin alone), 569 ng/mL. In addition, the “AUC0–144 h” value in data set [2] (setting [8]) was 28,400 (36.0) h*ng/mL; in data set [2] (setting [9]), 18,200 (46.6) h*ng/mL. Moreover, the results for the Cmax in data set [2] (setting [8]) and in data set [2] (setting [9]) were 599 (27.5) ng/mL and 569 (34.9) ng/mL, respectively.

Consider `CC(=O)C[C@H](c1ccccc1)c1c(O)c2ccccc2oc1=O` [R-warfarin], for which, in data set [2] (setting [7]), the “AUC0-inf, adjusted geometric mean” value is 38900 ng·h/mL and the “Cmax, adjusted geometric mean” value was determined as 616 ng/mL. Also, in data set [2] (treatment warfarin alone), the “AUC0-inf, adjusted geometric mean” value worked out at 36300 ng·h/mL and the “Cmax, adjusted geometric mean” value was 560 ng/mL. In data set [2] (setting [8]), the “AUC0–144 h” value is given as 38,500 (34.9) h*ng/mL and the Cmax is recorded as 616 (23.6) ng/mL. Also, in data set [2] (setting [9]), the “AUC0–144 h” value is listed as 30,600 (39.0) h*ng/mL and the Cmax is given as 560 (34.2) ng/mL. In addition, the “impact of ceritinib on R-warfarin pharmacokinetics” value in data set [2] (setting [10]) was “did not affect the pharmacokinetics of R-warfarin to a clinically significant extent; also recorded: negligible”.

For `CC(=O)C[C@@H](c1ccccc1)c1c(O)c2ccc(O)cc2oc1=O` [7-Hydroxy-S-warfarin, 7-hydroxy-S-warfarin], the “AUC0-inf, adjusted geometric mean” value in data set [2] (setting [7]) came to 3330 ng·h/mL; in data set [2] (treatment warfarin alone), 3090 ng·h/mL. The “Cmax, adjusted geometric mean” value in data set [2] (setting [7]) was determined as 34.8 ng/mL; in data set [2] (treatment warfarin alone), 39.1 ng/mL. Besides, the results for the Tmax in data set [2] (warfarin 10 mg single oral dose + ceritinib 750 mg QD (Day 28)) and in data set [2] (setting [9]) were 47.2 [8.50; 73.7] h and 24.2 [2.97; 49.9] h, respectively. Further, the “AUC0–144 h” value in data set [2] (setting [8]) was 3320 (64.1) h*ng/mL; in data set [2] (setting [9]) it was 2910 (61.8) h*ng/mL. For the same molecule, the Cmax in data set [2] (setting [8]) is on record as 34.9 (61.6) ng/mL; in data set [2] (setting [9]), 39.7 (60.3) ng/mL. Moreover, the Metabolite-to-parent ratio was 11.7 (58.2) % in data set [2] (warfarin + ceritinib 750 mg QD (Day 28)); 11.7% in data set [2] (warfarin + ceritinib 750 mg QD (Day 28), listed as 7-hydroxy-S-warfarin); 14.3 (66.6) % in data set [2] (warfarin alone (Day 1)); 14.3% in data set [2] (warfarin alone (Day 1), listed as 7-hydroxy-S-warfarin). Moreover, in data set [2] (setting [11]), the “AUC0-inf geometric mean ratio (90% CI)” value is given as 1.08. The “Cmax geometric mean ratio (90% CI)” value in data set [2] (setting [11]) was 0.890. The “decrease in the metabolite-to-parent AUC ratio” value in data set [2] (setting [10]) came out at 18%.

`Cc1ncc2n1-c1ccc(Cl)cc1C(c1ccccc1F)=NC2` [Midazolam, midazolam]: the Tmax in data set [1] (human, plasma, oral) was about 1 h; in data set [1] (human, plasma, po, 2.5 mg, read-out: Tmax) it was 0.5 h. Further, the AUC(0-inf) in data set [1] (human, plasma, oral, treatment midazolam + ceritinib 750 mg QD for 3 weeks, linear mixed effects model) was 393 ng·h/mL; in data set [1] (human, plasma, oral, treatment midazolam alone, linear mixed effects model), 72.5 ng·h/mL. For the same molecule, the Cmax in data set [1] (human, plasma, oral, treatment midazolam + ceritinib 750 mg QD for 3 weeks, linear mixed effects model, read-out: Cmax, adjusted geometric mean) came out at 42 ng/mL; in data set [1] (human, plasma, oral, treatment midazolam alone, linear mixed effects model, read-out: Cmax, adjusted geometric mean) it was 23 ng/mL; in data set [1] (human, plasma, po, 2.5 mg, midazolam 2.5 mg single oral dose alone (Day 1), patient plasma, geometric mean (CV%), read-out: Cmax) it was 23 ng/mL; in data set [1] (human, plasma, po, midazolam 2.5 mg single oral dose + ceritinib 750 mg QD at steady state (Day 28), patient plasma, geometric mean (CV%), read-out: Cmax) it was 42 ng/mL. Moreover, the half-life in data set [1] (human, plasma, po, 2.5 mg, midazolam 2.5 mg single oral dose alone (Day 1), geometric mean (CV%)) was 6 h; in data set [1] (human, plasma, po, midazolam 2.5 mg single oral dose + ceritinib 750 mg QD (Day 28), geometric mean (CV%)) it was 15 h. In addition, in data set [1] (human, plasma, po, 2.5 mg, read-out: AUC0–144 h), the AUC(0-t) was 70.2 ng·h/mL. Besides, the CL/F in data set [1] (setting [12]) is on record as 6.36 L/h; in data set [1] (setting [13]), 34.5 L/h. Besides, the T1/2 in data set [1] (setting [12]) is listed as 15.4 (37.4) h; in data set [1] (setting [13]) it was 6.05 (47.8) h. Also, the “decrease in apparent clearance (CL/F) of midazolam” value in data set [1] (setting [6]) is given as “approximately 80%”. Further, the results for the “predicted increase of midazolam AUC” value in data set [3] (ceritinib dosed to steady-state + single oral dose midazolam 5 mg) and in data set [3] (single dose ceritinib 750 mg + single oral dose midazolam 5 mg) were 6 fold and 30%, respectively.

Source of the values: article PMC7946667 (Cancer Chemotherapy and Pharmacology, 2021).
